System: recombinant luminescent bacteria, pLWY-fabG (in Serratia marcescens) and pLWY-sh1A (in Serratia marcescens)
Assay: Luminosity (RLU) of recombinant bio-luminescent bacteria after mixing with test sample
Type: cell-based
Conditions: 200 μl bacterial liquid + 20 μl test sample, react for 15 minutes, luminosity detected for 20 sec; expressed as percentage of purified water control (100%)
Source text: The technique developed in this invention that allows speedy detection of bio-inhibitory substances in wastewater is based on the principle that such substance poses a negative effect on the luminescent ability of recombinant luminescent bacteria, pLWY-fabG (in Serratia marcescens) and pLWY-sh1A (in Serratia marcescens) as provided herein. The detailed process for detecting bio-inhibitory substances in wastewater using the foregoing recombinant bio-luminescent bacteria are described below: 1. Culture the constructed foregoing recombinant bio-luminescent bacteria for 18-24 hours (O.D. >2); 2. Dilute the bacterial liquid at 1:100 with fresh LB broth the next day; 3. Shake culture at 225 rpm under 30° C. for one hour; 4. Mix 200 μl of bacterial liquid with 20 μl of test sample; mix well and let them react for 15 minutes; and 5. Use luminometer Berthold Lumat LB9507 to detect luminosity for 20 sec and the results are shown in relative light unit (RLU).
To preclude environmental error, each batch of test samples must include purified water to be treated as a positive control with RLU set as 100% for a standard reference. Given that the RLU of negative control (LB broth) is 0, it was not measured. The test results of samples are expressed as a percentage of the positive control. In this test, the amount of bacterial liquid used was 200 μl and that of test sample was 20 μl. Therefore the concentration of test sample was diluted to 1/11 of the original liquid at the time of testing. The concentrations of samples shown in the table are the detected concentration.

Compound | luminosity (RLU value) of the recombinant bio-luminescent bacterium versus concentration of the bio-inhibitory substance
CC#N [acetonitrile] | the higher is the acetonitrile concentration, the lower is the RLU value
Oc1ccccc1 [phenol] | the higher is the phenol concentration, the lower is the RLU value
[Zn+2] [zinc ion] | the higher is the zinc ion concentration, the lower is the RLU value

— US20050136445A1, “Recombinant DNA vector, recombinant bio-luminescent bacterium and method for detecting bio-inhibitory substances using same” (Industrial Technology Research Institute, priority 2003, published 2005)
